Data on 8 compounds can be found in PubChem BioAssay (NCI).

Molecules are shown by their SMILES.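 Growth conditions: 96-well plates. Treatment: test compound, 48 hours, 5 concentrations. Analysis: linear interpolation between bracketing concentrations; unreached endpoints set to highest concentration. At the GI50, growth is halved. TGI: concentration producing complete growth inhibition.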

Among the test systems are UACC-62 melanoma; SN12C renal; UO-31 renal; OVCAR-3 ovarian; MCF7 breast; OVCAR-5 ovarian; HCT-116 colon; COLO 205 colon; SK-MEL-5 melanoma; HL-60(TB) leukemia.
Holding throughout (assay): NCI anticancer screen, dose series, 48 h

Turning to `COc1ccc2c(c1)CC[C@@H]1[C@@H]2CC[C@]2(C)C=C(/C=C/C(=O)c3ccccc3)C[C@@H]12`, the GI50 in the test with UACC-62 melanoma was 13.8 µM; in the test with SN12C renal it was 18.5 µM; in the test on UO-31 renal it was 15.2 µM; in the test with OVCAR-3 ovarian it was 16.2 µM; with MCF7 breast it was 18.6 µM; in the test on OVCAR-5 ovarian, 16.5 µM. Further, the GI50 in the test with HCT-116 colon is 15.6 µM; in the test on COLO 205 colon, 19.7 µM; in the test with SK-MEL-5 melanoma, 14 µM; in the test with HL-60(TB) leukemia, 11.2 µM. The TGI in the test with UACC-62 melanoma stood at 27.2 µM; with SN12C renal, 33.4 µM; with UO-31 renal, 30.1 µM; with OVCAR-3 ovarian, 31.7 µM; in the test with MCF7 breast, 36.3 µM; with OVCAR-5 ovarian it was 30.7 µM. Besides, the TGI turned out to be 29.1 µM in the test with HCT-116 colon, 40.4 µM in the test with COLO 205 colon, 27.2 µM with SK-MEL-5 melanoma and 32.4 µM in the test with HL-60(TB) leukemia.

For `C#CCN(Cc1nc2cc(C(F)(F)F)ccc2nc1-c1ccccc1)c1ccc(F)c(F)c1`, the GI50 in the test with UACC-62 melanoma is 44.5 µM; in the test with SN12C renal, 46.2 µM; with UO-31 renal, 36.1 µM; with OVCAR-3 ovarian, 13.9 µM; in the test on MCF7 breast, 26 µM; in the test on OVCAR-5 ovarian, > 100 µM. In addition, the GI50 with HCT-116 colon was 38 µM; in the test on COLO 205 colon, 29.4 µM; in the test on SK-MEL-5 melanoma, 19.1 µM; with HL-60(TB) leukemia, 39 µM. Besides, the TGI is > 100 µM with UACC-62 melanoma; > 100 µM in the test with SN12C renal; > 100 µM with UO-31 renal; 61.8 µM in the test with OVCAR-3 ovarian; > 100 µM in the test with MCF7 breast; > 100 µM with OVCAR-5 ovarian. Also, the TGI with HCT-116 colon was > 100 µM; in the test on COLO 205 colon, > 100 µM; in the test with SK-MEL-5 melanoma it was 46.2 µM; with HL-60(TB) leukemia, > 100 µM.

`Nc1c(C(=O)Nc2cccc(Br)c2)sc2nc3c(cc12)C(O)CCC3` (stereo not given): the GI50 in the test with UACC-62 melanoma is 0.41 µM; with SN12C renal, 0.636 µM; with UO-31 renal, 0.685 µM; in the test with OVCAR-3 ovarian, 0.32 µM; with MCF7 breast it was 0.289 µM; with OVCAR-5 ovarian, 3.37 µM. The GI50 was 0.483 µM in the test on HCT-116 colon, 0.41 µM with COLO 205 colon, 0.455 µM with SK-MEL-5 melanoma and 0.24 µM in the test with HL-60(TB) leukemia. Besides, the TGI in the test on UACC-62 melanoma is > 94.9 µM; in the test on SN12C renal, > 100 µM; in the test with UO-31 renal, 40.3 µM; in the test with OVCAR-3 ovarian, 3.08 µM; in the test with MCF7 breast it was > 64.2 µM; in the test with OVCAR-5 ovarian, 60 µM. Also, the TGI in the test on HCT-116 colon is > 51.6 µM; with COLO 205 colon, > 32 µM; with SK-MEL-5 melanoma, > 45.4 µM; in the test on HL-60(TB) leukemia, 0.757 µM.

As for `O=c1c2c3c(sc2n2c(-c4ccc(Br)cc4)nnc2n1Cc1ccccc1)CCCC3`, the GI50 was 4.39 µM in the test on UACC-62 melanoma; 8.01 µM in the test on SN12C renal; 11.3 µM in the test on UO-31 renal; 6.24 µM in the test on OVCAR-3 ovarian; 10.6 µM in the test with MCF7 breast; 9.1 µM with OVCAR-5 ovarian. For the same compound, the GI50 with HCT-116 colon was 9.56 µM; in the test with COLO 205 colon it was 8.24 µM; with SK-MEL-5 melanoma, 3.8 µM; in the test on HL-60(TB) leukemia it was 14.1 µM. Besides, the TGI in the test on UACC-62 melanoma worked out at 17.2 µM; in the test on SN12C renal, 23.4 µM; in the test with UO-31 renal, 41.1 µM; in the test with OVCAR-3 ovarian, 20 µM; in the test with MCF7 breast, 23.2 µM; in the test with OVCAR-5 ovarian, 24.8 µM. The TGI was determined as 22.7 µM with HCT-116 colon, 22.8 µM in the test on COLO 205 colon, 14.3 µM with SK-MEL-5 melanoma and 77.5 µM with HL-60(TB) leukemia.

`Oc1ccc(Cl)cc1-c1cc(-c2ccc(F)cc2)n[nH]1`: the GI50 is 2.42 µM in the test on UACC-62 melanoma; 2.61 µM with SN12C renal; 1.21 µM in the test with UO-31 renal; 1.39 µM with OVCAR-3 ovarian; 0.395 µM in the test on MCF7 breast; 5.39 µM in the test with OVCAR-5 ovarian. The GI50 was 2 µM in the test on HCT-116 colon, 2.08 µM with COLO 205 colon, 1.93 µM in the test on SK-MEL-5 melanoma and 3.6 µM in the test with HL-60(TB) leukemia. The TGI in the test on UACC-62 melanoma was 9.5 µM; in the test on SN12C renal it was 13.3 µM; with UO-31 renal it was 3.78 µM; with OVCAR-3 ovarian it was 3.53 µM; in the test with MCF7 breast, 14.1 µM; in the test on OVCAR-5 ovarian it was > 100 µM. Besides, the TGI in the test on HCT-116 colon is 5.64 µM; in the test on COLO 205 colon, 4.85 µM; with SK-MEL-5 melanoma, 5.55 µM; with HL-60(TB) leukemia, 21.5 µM.

Take `Cc1cc(O)cc2c1c(=O)c1ccccc1n2C`: the TGI in the test with UACC-62 melanoma, in the test on SN12C renal, with UO-31 renal, in the test with OVCAR-3 ovarian, with MCF7 breast and in the test on OVCAR-5 ovarian was > 100 µM throughout. Also, the TGI in the test on HCT-116 colon, with COLO 205 colon, in the test with SK-MEL-5 melanoma and in the test on HL-60(TB) leukemia was > 100 µM each time.

For `CC1(C)[C@@H](OC(N)=O)C=C[C@]2(C=O)[C@H]3CC[C@]4(C)[C@@H](c5ccc(=O)oc5)[C@@H](Cl)C[C@]4(O)C3=CC[C@@H]12`, the GI50 in the test on UACC-62 melanoma was 0.00491 µM; with SN12C renal, 0.00293 µM; with UO-31 renal, 0.00524 µM; in the test on OVCAR-3 ovarian, 0.00329 µM; in the test on MCF7 breast, 0.00688 µM; in the test on OVCAR-5 ovarian, 0.00581 µM. Further, the GI50 is 0.00409 µM in the test with HCT-116 colon, 0.00685 µM in the test with COLO 205 colon, 0.00458 µM in the test with SK-MEL-5 melanoma and 0.00558 µM in the test on HL-60(TB) leukemia. For the same compound, the TGI was found to be 0.0105 µM in the test with UACC-62 melanoma; 0.0136 µM with SN12C renal; 0.0124 µM in the test on UO-31 renal; 0.00828 µM in the test on OVCAR-3 ovarian; 0.0287 µM in the test on MCF7 breast; 0.0135 µM with OVCAR-5 ovarian. Also, the TGI is 0.00818 µM with HCT-116 colon, 0.0178 µM in the test with COLO 205 colon, 0.00903 µM with SK-MEL-5 melanoma and 0.0121 µM with HL-60(TB) leukemia.

As for `CCCCCCNC(=O)Oc1ccc(/C(=C(\C)c2ccccc2)c2ccc(OCCN(CC)CC)cc2)cc1`, the GI50 in the test with UACC-62 melanoma was 2.05 µM; with SN12C renal, 4.93 µM; in the test with UO-31 renal, 1.51 µM; in the test on OVCAR-3 ovarian, 4.73 µM; in the test on MCF7 breast, 0.602 µM; with OVCAR-5 ovarian, 6.71 µM. Besides, the GI50 in the test on HCT-116 colon is 2.08 µM; with COLO 205 colon it was 1.17 µM; in the test with SK-MEL-5 melanoma it was 3.01 µM; in the test on HL-60(TB) leukemia, 0.524 µM. The TGI with UACC-62 melanoma turned out to be 7.4 µM; in the test on SN12C renal, 10.9 µM; with UO-31 renal, 6.09 µM; with OVCAR-3 ovarian it was 11.6 µM; with MCF7 breast, 5.47 µM; with OVCAR-5 ovarian, 13.2 µM. The TGI was found to be 7.39 µM in the test with HCT-116 colon, 2.49 µM in the test on COLO 205 colon, 9.26 µM with SK-MEL-5 melanoma and 5.2 µM in the test on HL-60(TB) leukemia.
